Experiments:
Zymoseptoria tritici = assay: Leaf blotch of wheat (SEPTTR) disease control on wheat seedlings; type: in vivo; design: key to SEPTTR 1DP, HV activity at 100 ppm (% control rating) / SEPTTR 3DC, HV activity at 100 ppm (% control rating) / SEPTTR disease control, 1DP / SEPTTR disease control, 3DC / SEPTTR 1DP disease control rating, HV activity / SEPTTR 3DC disease control rating, HV activity / SEPTTR 3DC, LV activity at 125.1 g/H (% Control rating) / SEPTTR 1DP, LV activity at 125.1 g/H (% Control rating) / SEPTTR 1DP disease control rating, LV activity at 125.1 g/H / SEPTTR 3DC disease control rating, LV activity at 125.1 g/H / SEPTTR 3DC disease control rating, HV activity at 100 ppm / SEPTTR 1DP disease control rating, HV activity at 100 ppm / HV activity at 100 ppm SEPTTR 3DC (disease control rating) / HV activity at 100 ppm SEPTTR 1DP (disease control rating) / LV activity at 125.1 g/H SEPTTR 1DP (disease control rating) / LV activity at 125.1 g/H SEPTTR 3DC (disease control rating): A: > 80; B: ≤ 80; C: Not Tested; D: No Activity Observed in the Reported Assay; settings: for SEPTTR 1DP disease control rating, HV activity / SEPTTR 3DC disease control rating, HV activity: HV application at 100 ppm; for SEPTTR 1DP disease control rating, HV activity / SEPTTR 3DC disease control rating, HV activity / LV activity at 125.1 g/H SEPTTR 1DP (disease control rating) / LV activity at 125.1 g/H SEPTTR 3DC (disease control rating): wheat leaf blotch
Puccinia triticina = assay: Wheat brown rust (PUCCRT) disease control on wheat seedlings; type: in vivo; design: key to PUCCRT 3DC, HV activity at 100 ppm (% control rating) / PUCCRT disease control, 3DC / PUCCRT 1DP disease control rating, HV activity / PUCCRT 3DC disease control rating, HV activity / PUCCRT 3DC, LV activity at 125.1 g/H (% Control rating) / PUCCRT 1DP, LV activity at 125.1 g/H (% Control rating) / PUCCRT 3DC disease control rating, LV activity at 125.1 g/H / PUCCRT 1DP disease control rating, LV activity at 125.1 g/H / PUCCRT 3DC disease control rating, HV activity at 100 ppm / PUCCRT 1DP disease control rating, HV activity at 100 ppm / HV activity at 100 ppm PUCCRT 3DC (disease control rating) / LV activity at 125.1 g/H PUCCRT 1DP (disease control rating) / LV activity at 125.1 g/H PUCCRT 3DC (disease control rating): A: > 80; B: ≤ 80; C: Not Tested; D: No Activity Observed in the Reported Assay; settings: for PUCCRT 1DP disease control rating, HV activity / PUCCRT 3DC disease control rating, HV activity: HV application at 100 ppm; for PUCCRT 1DP disease control rating, HV activity / PUCCRT 3DC disease control rating, HV activity / LV activity at 125.1 g/H PUCCRT 1DP (disease control rating) / LV activity at 125.1 g/H PUCCRT 3DC (disease control rating): wheat brown rust
[1] = high volume application, 100 ppm, 1 day protectant
[2] = high volume application, 100 ppm, 3 day curative
[3] = HV activity at 100 ppm, 1 Day Protectant, wheat
[4] = HV activity at 100 ppm, 3 Day Curative, wheat
[5] = high volume application, 100 ppm, 1DP
[6] = high volume application, 100 ppm, 3DC
[7] = low volume application, 125.1 g/H, 1 Day Protectant
[8] = low volume application, 125.1 g/H, 3 Day Curative
[9] = low volume application, 125.1 g/H, 1 day protectant
[10] = low volume application, 125.1 g/H, 3 day curative

SMILES: C=CC[C@@H](Oc1cccc(Cl)c1)[C@H](C)OC(=O)[C@H](C)NC(=O)c1nccc(OC)c1O [Cmpd 1021]
- SEPTTR 1DP disease control rating, HV activity at 100 ppm (Zymoseptoria tritici; [1]): A (> 80)
- SEPTTR 3DC disease control rating, HV activity at 100 ppm (Zymoseptoria tritici; [2]): A (> 80)
- PUCCRT 1DP disease control rating, HV activity at 100 ppm (Puccinia triticina; [1]): A (> 80)
- PUCCRT 3DC disease control rating, HV activity at 100 ppm (Puccinia triticina; [2]): A (> 80)

SMILES: CCCOC(CC)C(Oc1ccccc1)C(C)OC(=O)C(C)NC(=O)c1nccc(OC)c1O (stereo not shown) [Cmpd 289]
- SEPTTR disease control, 1DP (Zymoseptoria tritici; [3]): B (≤ 80)
- SEPTTR disease control, 3DC (Zymoseptoria tritici; [4]): A (> 80)
- SEPTTR 1DP disease control rating, HV activity (Zymoseptoria tritici; 1 Day Protectant): B (≤ 80)
- SEPTTR 3DC disease control rating, HV activity (Zymoseptoria tritici; 3 Day Curative): A (> 80)
- SEPTTR 1DP, HV activity at 100 ppm (% control rating) (Zymoseptoria tritici; [5]): B (≤ 80)
- SEPTTR 3DC, HV activity at 100 ppm (% control rating) (Zymoseptoria tritici; [6]): A (> 80)
- PUCCRT disease control, 1DP (Puccinia triticina; [3]): A (> 80)
- PUCCRT disease control, 3DC (Puccinia triticina; [4]): A (> 80)
- PUCCRT 1DP disease control rating, HV activity (Puccinia triticina; 1 Day Protectant): A (> 80)
- PUCCRT 3DC disease control rating, HV activity (Puccinia triticina; 3 Day Curative): A (> 80)
- PUCCRT 1DP, HV activity at 100 ppm (% control rating) (Puccinia triticina; [5]): A (> 80)
- PUCCRT 3DC, HV activity at 100 ppm (% control rating) (Puccinia triticina; [6]): A (> 80)

SMILES: CCC(CC)[C@@H](Oc1cccc(Cl)c1)[C@H](C)OC(=O)[C@@H](NC(=O)c1nccc(OC)c1OCOC(C)=O)C(C)C [Cmpd 647]
- SEPTTR 1DP, LV activity at 125.1 g/H (% Control rating) (Zymoseptoria tritici; [7]): A (> 80)
- SEPTTR 3DC, LV activity at 125.1 g/H (% Control rating) (Zymoseptoria tritici; [8]): B (≤ 80)
- PUCCRT 1DP, LV activity at 125.1 g/H (% Control rating) (Puccinia triticina; [7]): A (> 80)
- PUCCRT 3DC, LV activity at 125.1 g/H (% Control rating) (Puccinia triticina; [8]): B (≤ 80)

SMILES: COc1ccnc(C(=O)N[C@@H](C)C(=O)O[C@@H](C)[C@@H](COc2ccccc2)Oc2ccccc2)c1OC(C)=O [Cmpd 488]
- SEPTTR 1DP, LV activity at 125.1 g/H (% Control rating) (Zymoseptoria tritici; [7]): A (> 80)
- SEPTTR 3DC, LV activity at 125.1 g/H (% Control rating) (Zymoseptoria tritici; [8]): B (≤ 80)
- PUCCRT 1DP, LV activity at 125.1 g/H (% Control rating) (Puccinia triticina; [7]): A (> 80)
- PUCCRT 3DC, LV activity at 125.1 g/H (% Control rating) (Puccinia triticina; [8]): A (> 80)

SMILES: CCCC(OC(=O)C(C)NC(=O)c1nccc(OC)c1OCOC(C)=O)C(Oc1ccccc1)C(C)C (stereo not shown) [Cmpd 1096]
- LV activity at 125.1 g/H SEPTTR 1DP (disease control rating) (Zymoseptoria tritici; [7]): D
- LV activity at 125.1 g/H SEPTTR 3DC (disease control rating) (Zymoseptoria tritici; [8]): B (≤ 80)
- LV activity at 125.1 g/H PUCCRT 1DP (disease control rating) (Puccinia triticina; [7]): D
- LV activity at 125.1 g/H PUCCRT 3DC (disease control rating) (Puccinia triticina; [8]): D

SMILES: COc1ccnc(C(=O)N[C@@H](C)C(=O)O[C@@H](C)[C@H](Oc2cccc(F)c2)C2CCCC2)c1O [Cmpd 839]
- SEPTTR 1DP disease control rating, HV activity at 100 ppm (Zymoseptoria tritici; [1]): B (≤ 80)
- SEPTTR 3DC disease control rating, HV activity at 100 ppm (Zymoseptoria tritici; [2]): B (≤ 80)
- PUCCRT 1DP disease control rating, HV activity at 100 ppm (Puccinia triticina; [1]): A (> 80)
- PUCCRT 3DC disease control rating, HV activity at 100 ppm (Puccinia triticina; [2]): A (> 80)

SMILES: COc1ccnc(C(=O)N[C@@H](C)C(=O)O[C@@H](C)[C@H](Oc2ccccc2)C(C)(C)C)c1OC(C)=O [Cmpd 1065]
- LV activity at 125.1 g/H SEPTTR 1DP (disease control rating) (Zymoseptoria tritici; [7]): B (≤ 80)
- LV activity at 125.1 g/H SEPTTR 3DC (disease control rating) (Zymoseptoria tritici; [8]): A (> 80)
- LV activity at 125.1 g/H PUCCRT 1DP (disease control rating) (Puccinia triticina; [7]): A (> 80)
- LV activity at 125.1 g/H PUCCRT 3DC (disease control rating) (Puccinia triticina; [8]): A (> 80)

SMILES: C=CC[C@@H](Oc1cc(F)cc(Cl)c1)[C@H](C)OC(=O)[C@H](C)NC(=O)c1nccc(OC)c1OCOC(C)=O [Cmpd 1078]
- LV activity at 125.1 g/H SEPTTR 1DP (disease control rating) (Zymoseptoria tritici; [7]): B (≤ 80)
- LV activity at 125.1 g/H SEPTTR 3DC (disease control rating) (Zymoseptoria tritici; [8]): B (≤ 80)
- LV activity at 125.1 g/H PUCCRT 1DP (disease control rating) (Puccinia triticina; [7]): A (> 80)
- LV activity at 125.1 g/H PUCCRT 3DC (disease control rating) (Puccinia triticina; [8]): A (> 80)

SMILES: CCCO[C@@H](c1ccccc1)[C@H](C)OC(=O)[C@H](C)NC(=O)c1nccc(OC)c1OC(C)=O [Cmpd 883]
- SEPTTR 1DP disease control rating, LV activity at 125.1 g/H (Zymoseptoria tritici; [9]): B (≤ 80)
- SEPTTR 3DC disease control rating, LV activity at 125.1 g/H (Zymoseptoria tritici; [10]): A (> 80)
- PUCCRT 1DP disease control rating, LV activity at 125.1 g/H (Puccinia triticina; [9]): A (> 80)
- PUCCRT 3DC disease control rating, LV activity at 125.1 g/H (Puccinia triticina; [10]): A (> 80)

SMILES: COc1ccnc(C(=O)NC(C)C(=O)OC(C)C(OC)C23CC4CC(CC(C4)C2)C3)c1O (stereo not shown) [Cmpd 829]
- SEPTTR 1DP disease control rating, HV activity at 100 ppm (Zymoseptoria tritici; [1]): D
- SEPTTR 3DC disease control rating, HV activity at 100 ppm (Zymoseptoria tritici; [2]): D
- PUCCRT 1DP disease control rating, HV activity at 100 ppm (Puccinia triticina; [1]): B (≤ 80)
- PUCCRT 3DC disease control rating, HV activity at 100 ppm (Puccinia triticina; [2]): D

SMILES: COc1ccnc(C(=O)N[C@@H](C)C(=O)O[C@@H](C)[C@@H](Cc2ccccc2)OCC(C)C)c1O [Cmpd 343]
- SEPTTR 1DP disease control rating, HV activity (Zymoseptoria tritici; 1 Day Protectant): A (> 80)
- SEPTTR 3DC disease control rating, HV activity (Zymoseptoria tritici; 3 Day Curative): B (≤ 80)
- PUCCRT 1DP disease control rating, HV activity (Puccinia triticina; 1 Day Protectant): A (> 80)
- PUCCRT 3DC disease control rating, HV activity (Puccinia triticina; 3 Day Curative): A (> 80)

Source: US20180000085A1, “USE OF PICOLINAMIDE COMPOUNDS WITH FUNGICIDAL ACTIVITY” (DOW AGROSCIENCES LLC, priority 2014, published 2018)
